Values of other authors in patent US6979682B2, “Platelet-activating factor antagonist inhibition of angiogenesis and tumor growth induced by basic fibroblast” (Board of Supervisors of Louisiana State University and …, priority 2001, dated 2005).
Entries after “also recorded” stand apart in the source; their conditions may differ.

What was measured:
[1] = test system: PAF binding sites (microsomal intracellular membranes; synaptosomal plasma membrane); settings: Marcheselli et al., 1990; cited from earlier work
[2] = test system: angiogenesis stimulated by HGF, TNF-α or bFGF; settings: cited from earlier work

| SMILES | binding to the intracellular PAF binding sites [1] | angiogenesis stimulated by bFGF ([2]; Camussi et al., 1997, Montrucchio et al.) | angiogenesis stimulated by HGF ([2]; Camussi et al., 1997) | angiogenesis stimulated by TNF-α ([2]; Montrucchio et al.) |
| --- | --- | --- | --- | --- |
| CCCCCCCCCCCCCCCCCCNC(=O)OCC(COP(=O)([O-])OCC[n+]1ccsc1)OC (stereo not shown) [CV-3988, reference compound] | known to bind to the intracellular PAF binding sites |  |  |  |
| Cc1nnc2n1-c1sc3c(c1C(c1ccccc1Cl)=NC2)CC(C(=O)N1CCOCC1)C3 (stereo not shown) [WEB 2170] |  | did not inhibit; also recorded: not inhibited | inhibited | inhibited |
